Data published in patent US12048704B2, “Method for treatment of cancer with combination of cold atmospheric plasma and a gene inhibitor” (Jerome Canady Research Institute for Advanced Biological …, priority 2019, dated 2024).

Tested on: MDA-MB-231 cells
Assay: MTT cell viability assay with/without CAP treatment
Assay type: cell-based, Human
Settings: for cell viability (baseline toxicity), agent alone: MDA-MB-231, without CAP treatment, MTT 24 hours
Procedure: Human breast cancer cell lines T-47D, SK-BR-3, and BT-474, were purchased from ATCC (Manassas, Va., USA). MCF-7, MDA-MB-231, Hs578T, and HCC1806 were generously donated by Professor Kanaan' s laboratory at Howard University. All cell lines except SK-BR-3 were cultured in Roswell Park Memorial Institute (RPMI) 1640 Medium supplemented with 10% fetal bovine serum (Sigma-Aldrich, St. Louis, Mo., USA) and 1% Pen Strep (Thermo Fisher Scientific, Waltham, Mass., USA) in a 37° C. and 5% CO2 humidified incubator (Thermo Fisher Scientific, Waltham, Mass., USA). The exceptions for culture conditions include T-47D, which was additionally supplemented with 0.5 mg/mL insulin. SK-BR-3 was cultured in McCoy's 5A Medium. When cells reached approximately 80% confluence, cells were seeded at a concentration of 10^5 cells/well into 12-well plates (USA Scientific, Ocala, Fla., USA) with a 1 mL media volume per well for cell viability assays. MDA-MB-231 cells were transfected with siRNA and transfection reagent according to the manufacturer's instructions. Transfection of BCL2A1 esiRNA or control esiRNA was done at 13 pmol. Briefly, cells were seeded in a 12-well-plate at a density of 1×10^5 cells/well overnight in (RPMI) 1640 Medium supplemented with 10% fetal bovine serum (Sigma-Aldrich, St. Louis, Mo., USA) and 1% Pen Strep (Thermo Fisher Scientific, Waltham, Mass., USA) in a 37° C. and 5% CO2 humidified incubator. The media was replaced with antibiotics-free medium RPMI 2 minutes before the transfection. esiRNA was mixed with Lipofectamine RNAiMAX transfection reagent in 100 μl optimal medium at the required concentration of 13 pmol/mL and were incubated at room temperature for 30 min to form a complex and the mixture was supplemented to each well with optimal medium. Four hours after the transfection, the transfected cells were CAP treated. After 24 hours after the CAP treatment, cells viability was assessed by using MTT assay. Thiazolyl blue tetrazolium bromide (MTT) assay was performed on the cells 24 hours after plasma treatment following the manufacturer's protocol with all MTT assay reagents purchased from Sigma-Aldrich (St. Louis, Mo., USA). The absorbance of the dissolved compound was measured by BioTek Synergy HTX (Winooski, Vt., USA) microplate reader at 570 nm following standard procedure. All viability assays were repeated 3 times with at least 2 replicates each. Data was plotted by Microsoft Excel 2016 as the mean±standard error of the mean. A student t-test or a one-way analysis of variance (ANOVA) was used to check statistical significance where applicable. The differences were considered statistically significant for * p<0.05. A one-way multivariate analysis of variance (MANOVA) followed by a Post-Hoc test was used to check statistical significance where applicable. […] At 24 hrs after transfection with BCL2A1 esiRNA (13 pmol), as mentioned in methods section survival of treatments was determined by MTT assay. The data is represented by the SEM (n=3). (**** P<0.0001* p<0.05, ** p<0.01, *** p<0.001, Student's t-test) versus control. FIGS. 19A-19B show viability of triple cancer breast cancer cell line MDA-MB-231 with Gambogic acid, an antagonist of antiapoptotic Bc1-2 family (FIG. 19A) or CPI203 (FIG. 19B, a BET bromodomain inhibitor after CAP treatment. Bar graph represents MDA-MB-231 MTT cell viability assay after treatment with Gambogic acid (FIG. 19A) or CPI203 (FIG. 19B) in combination of with/without CAP treatment at 80 p Or 120 p 5 mins at 3 L/min He. The samples were compared to the mock control groups. The data is represented by the SEM (n=3). (* p<0.05, ** p<0.01, *** p<0.001, Student's t-test).

SMILES	cell viability, CPI203 with CAP treatment (MDA-MB-231, 0.25 uM, p<0.05)	cell viability, CPI203 with CAP treatment (MDA-MB-231, 1uM, p<0.01)	cell viability, CPI203 with CAP treatment (MDA-MB-231, 5uM, p<0.001)	cell viability (baseline toxicity), agent alone	CAP-induced cell death, combination of CAP and agent (breast cancer cells, p<0.05)	cell viability in combination with CAP treatment compared to CAP treatment alone (MDA-MB-231, CAP 80 p or 120 p 5 mins at 3 L/min He, MTT 24 hours after CAP)
Cc1sc2c(c1C)C(c1ccc(Cl)cc1)=N[C@@H](CC(N)=O)c1nnc(C)n1-2 [CPI203]	significant reduction in cell viability	significant reduction in cell viability	significant reduction in cell viability	without any cytotoxicity by itself	dramatically increased the CAP-induced cell death	–
CC(C)=CCC[C@]1(C)C=Cc2c(O)c3c(c(CC=C(C)C)c2O1)O[C@]12C(=C[C@@H]4C[C@H]1C(C)(C)O[C@@]2(C/C=C(/C)C(=O)O)C4=O)C3=O [GA, gambogic acid]	–	–	–	cell viability decreased in all the 5 doses	–	no dose that significantly reduced the viability of cells
